Results on 11 substances are retold here after patent US20250353873A1, “COMPOUNDS AND METHODS FOR MODULATING APOE EXPRESSION” (Ionis Pharmaceuticals, Inc., priority 2024, published 2025).

Series [1] has as its system human APOE RNA. The series can be described thus: Dose-dependent inhibition of human APOE RNA in HepG2 cells, electroporation, 50,000 cells per well, RT-PCR normalized to GAPDH (Example 4, Tables 8-10). As to conditions: HepG2, electroporation, 24-hour treatment. Type of series: cell-based. The method, then: Modified oligonucleotides selected from the examples above were tested at various doses in HepG2 cells. The modified oligonucleotides were tested in a series of experiments that had the same culture conditions. Each experiment is identified in separate tables below.
HepG2 cells plated at a density of 50,000 cells per well were treated by electroporation with various concentrations of modified oligonucleotide as specified in the tables below. […] APOE RNA levels were measured using the human primer probe set RTS3073 (forward sequence […], designated herein as SEQ ID NO: 7; reverse sequence CCATCAGCGCCCTCAGTT, designated herein as SEQ ID NO: 8; probe sequence […], designated herein as SEQ ID NO:9). APOE RNA levels were normalized to human GAPDH. […] Results are presented as percent APOE RNA, relative to the amount of APOE RNA in untreated control cells (UTC).

Series [2] relates to human APOE RNA. In words: Activity in APOE C57BL/6NTac-Apoeem7250 knock-in mice, single ICV bolus, 4 weeks (Example 10). Type of series: in vivo. The following applies: single ICV bolus 300 μg, 4 weeks post treatment, normalized to mouse Ppia. The method, then:
Modified oligonucleotides described above were tested in the APOE C57BL/6NTac-Apoeem7250 knock-in mouse model described above.
APOE C57BL/6NTac-Apoeem7250 knock-in mice were divided into groups of 2-4 mice each. Each mouse received a single ICV bolus of 300 μg of modified oligonucleotide. A group of 3-4 mice received a single ICV bolus with PBS as a negative control.
Four weeks post treatment, mice were sacrificed and RNA was extracted from cortical brain tissue and spinal cord for quantitative real-time RT-PCR analysis of RNA expression of APOE using human primer probe set RTS3073 (described herein above). APOE RNA levels were normalized to mouse Ppia. Mouse Ppia was amplified using primer probe set m_cyclo24 (described herein above). Results are presented as percent human APOE RNA relative to the amount of human APOE RNA in PBS treated animals, (% control). Each experiment is identified in separate tables below.

For series [3], the system named is human APOE RNA. In words: Activity in APOE C57BL/6NTac-Apoeem7250 knock-in mice, single ICV bolus, 8 weeks (Example 11). As to conditions: single ICV bolus 300 μg, 8 weeks post treatment, normalized to mouse Ppia. It counts as in vivo. An outline of the steps: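 Human APOE knock-in C57BL/6NTac mice given one ICV bolus of 300 μg oligonucleotide; PBS-dosed group as control. At 8 weeks, cortex and spinal cord RNA measured by qRT-PCR (human probe RTS3073), normalized to mouse Ppia, expressed as % of PBS control.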

The test system of series [4] is human APOE RNA. In words: Activity in APOE C57BL/6NTac-Apoeem7250 knock-in mice, single ICV bolus, 16 weeks (Example 12). The following applies: single ICV bolus 300 μg, 16 weeks post treatment, normalized to mouse Ppia. It counts as in vivo. An outline of the steps: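 Knock-in mice (3-4 per group) received one ICV bolus of 300 μg oligonucleotide, PBS as control. After 16 weeks, human APOE RNA in cortex and spinal cord measured by RT-qPCR, normalized to mouse Ppia, and reported as % of PBS control.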

Strand notation (5' to 3'): a small letter for the sugar, then the base; units joined by * are phosphorothioate-linked, units joined directly phosphodiester-linked; [ ] holds rarer units or linkages, { } end groups; capitals alone tell only the bases. [ms] = mesyl phosphoramidate linkage; e = 2'-O-(2-methoxyethyl) (MOE); k = constrained ethyl (cEt); [5mC] = 5-methylcytosine; d = 2'-deoxy (DNA)

Consider “1746792 (k[5mC]*dT[ms]dT[ms]kG*dG[ms]kT*dG[ms]dA[ms]dA[ms]dT*d[5mC]*dT*dT*dT*dA[ms]dT*kT*kA*dA[ms]kA; antisense) [Compound 1746792]”, for which the “APOE RNA (% UTC)” value with human APOE RNA [1] (5 nM) is 80 % UTC; in the series on human APOE RNA [1] (13 nM) it was 102 % UTC; with human APOE RNA [1] (33 nM), 90 % UTC; in the series with human APOE RNA [1] (82 nM), 87 % UTC; with human APOE RNA [1] (205 nM), 68 % UTC; in the series with human APOE RNA [1] (512 nM) it was 44 % UTC. In addition, the “APOE RNA (% UTC)” value in the series on human APOE RNA [1] (1,280 nM) came out at 17 % UTC; with human APOE RNA [1] (3,200 nM), 12 % UTC; in the series on human APOE RNA [1] (8,000 nM) it was 8 % UTC; with human APOE RNA [1] (20,000 nM), 6 % UTC. In the series on human APOE RNA [1], this substance had an IC50 of 400 nM. Moreover, the “APOE RNA (% control) Cortex” value in the series on human APOE RNA [2] was determined as 71 % control. In addition, the “APOE RNA (% control) Spinal Cord” value in the series on human APOE RNA [2] worked out at 49 % control.
As to “1746802 (k[5mC]*dT[ms]dT[ms]dG[ms]kG*kT*dG[ms]dA[ms]dA[ms]dT*d[5mC]*dT*dT*dT*dA[ms]dT*kT*dA[ms]kA*kA; antisense) [Compound 1746802]”, the “APOE RNA (% UTC)” value in the series with human APOE RNA [1] (5 nM) stood at 76 % UTC; in the series on human APOE RNA [1] (13 nM), 108 % UTC; in the series on human APOE RNA [1] (33 nM) it was 74 % UTC; in the series on human APOE RNA [1] (82 nM), 72 % UTC; with human APOE RNA [1] (205 nM), 58 % UTC; in the series on human APOE RNA [1] (512 nM), 57 % UTC. The “APOE RNA (% UTC)” value in the series on human APOE RNA [1] (1,280 nM) came out at 36 % UTC; with human APOE RNA [1] (3,200 nM), 47 % UTC; in the series on human APOE RNA [1] (8,000 nM), 39 % UTC; in the series on human APOE RNA [1] (20,000 nM), 3 % UTC. This substance had an IC50 in the series on human APOE RNA [1] of 780 nM. In the series with human APOE RNA [2], the “APOE RNA (% control) Cortex” value is reported as 72 % control. In the series with human APOE RNA [2], the “APOE RNA (% control) Spinal Cord” value came out at 52 % control.
Regarding “1746797 (k[5mC]*kT*dT[ms]dG[ms]dG[ms]kT*dG[ms]dA[ms]dA[ms]dT*d[5mC]*dT*dT*dT*dA[ms]dT*kT*dA[ms]kA*kA; antisense) [Compound 1746797]”, the “APOE RNA (% UTC)” value with human APOE RNA [1] (5 nM) turned out to be 139 % UTC; in the series with human APOE RNA [1] (13 nM), 128 % UTC; in the series on human APOE RNA [1] (33 nM), 150 % UTC; with human APOE RNA [1] (82 nM), 143 % UTC; with human APOE RNA [1] (205 nM), 129 % UTC; in the series on human APOE RNA [1] (512 nM), 113 % UTC. The “APOE RNA (% UTC)” value in the series on human APOE RNA [1] (1,280 nM) turned out to be 71 % UTC; with human APOE RNA [1] (3,200 nM), 37 % UTC; in the series with human APOE RNA [1] (8,000 nM), 42 % UTC; in the series with human APOE RNA [1] (20,000 nM) it was 18 % UTC. This substance also had an IC50 in the series on human APOE RNA [1] of 3770 nM. In addition, the “APOE RNA (% control) Cortex” value in the series on human APOE RNA [2] is 72 % control. Further, the “APOE RNA (% control) Spinal Cord” value with human APOE RNA [2] turned out to be 68 % control.
As to “1746787 (k[5mC]*kT*dT[ms]dG[ms]dG[ms]kT*dG[ms]dA[ms]dA[ms]dT*d[5mC]*dT*dT*dT*dA[ms]dT*kT*kA*dA[ms]kA; antisense) [Compound 1746787]”, the “APOE RNA (% UTC)” value in the series with human APOE RNA [1] (5 nM) was 148 % UTC; with human APOE RNA [1] (13 nM), 108 % UTC; with human APOE RNA [1] (33 nM), 92 % UTC; in the series on human APOE RNA [1] (82 nM) it was 97 % UTC; with human APOE RNA [1] (205 nM), 87 % UTC; in the series with human APOE RNA [1] (512 nM), 68 % UTC. The “APOE RNA (% UTC)” value was found to be 56 % UTC with human APOE RNA [1] (1,280 nM), 37 % UTC in the series on human APOE RNA [1] (3,200 nM), 11 % UTC in the series on human APOE RNA [1] (8,000 nM) and 14 % UTC in the series on human APOE RNA [1] (20,000 nM). For the same substance, 1520 nM corresponded to half-maximal inhibition in the series with human APOE RNA [1] (IC50). Moreover, the “APOE RNA (% control) Cortex” value with human APOE RNA [2] is listed as 76 % control. In addition, the “APOE RNA (% control) Spinal Cord” value in the series with human APOE RNA [2] is recorded as 71 % control.
With “1693052: 5-10-5 MOE gapmer TTGGTGAATCTTTATTAAAC, linkages sossszzzsssssssosss (antisense eT*eTeG*eG*eT*dG[ms]dA[ms]dA[ms]dT*d[5mC]*dT*dT*dT*dA*dT*eTeA*eA*eA*e[5mC]) [compound 1693052]”, in the series on human APOE RNA [3], the “APOE RNA (% control) Cortex” value stood at 65 % control and the “APOE RNA (% control) Spinal Cord” value was 79 % control. Moreover, in the series on human APOE RNA [4], the “APOE RNA (% control) Cortex” value was determined as 91 % control and the “APOE RNA (% control) Spinal Cord” value is 85 % control.
The like results for “1681020: 5-10-5 MOE gapmer GGTGAATCTTTATTAAACTA, linkages zsssszsssszzszssssz (antisense eG[ms]eG*eT*eG*eA*dA[ms]dT*d[5mC]*dT*dT*dT[ms]dA[ms]dT*dT[ms]dA*eA*eA*e[5mC]*eT[ms]eA) [compound 1681020]” were, in that order, 63 % control, 35 % control, 92 % control and 59 % control.
On to “1681005: 5-10-5 MOE gapmer GGTGAATCTTTATTAAACTA, linkages ssssszsssszzszsssss (antisense eG*eG*eT*eG*eA*dA[ms]dT*d[5mC]*dT*dT*dT[ms]dA[ms]dT*dT[ms]dA*eA*eA*e[5mC]*eT*eA) [compound 1681005]”, for which, in the series on human APOE RNA [3], the “APOE RNA (% control) Cortex” value is given as 101 % control and the “APOE RNA (% control) Spinal Cord” value worked out at 70 % control. For the same substance, in the series on human APOE RNA [4], the “APOE RNA (% control) Cortex” value is 116 % control and the “APOE RNA (% control) Spinal Cord” value stood at 68 % control.
The like results for “1681006: 5-10-5 MOE gapmer GGTGAATCTTTATTAAACTA, linkages ssssszsssszzszzssss (antisense eG*eG*eT*eG*eA*dA[ms]dT*d[5mC]*dT*dT*dT[ms]dA[ms]dT*dT[ms]dA[ms]eA*eA*e[5mC]*eT*eA) [compound 1681006]” were, in that order, 85 % control, 71 % control, 120 % control and 80 % control.
The like results for “1693040: 5-10-5 MOE gapmer CTTGGTGAATCTTTATTAAA, linkages sssosszzzssssssosss (antisense e[5mC]*eT*eT*eGeG*dT*dG[ms]dA[ms]dA[ms]dT*d[5mC]*dT*dT*dT*dA*eTeT*eA*eA*eA) [compound 1693040]” were, in that order, 80 % control, 77 % control, 92 % control and 71 % control.
The corresponding values for “1693047: 5-10-5 MOE gapmer CTTGGTGAATCTTTATTAAA, linkages sssoszzzzssssszosss (antisense e[5mC]*eT*eT*eGeG*dT[ms]dG[ms]dA[ms]dA[ms]dT*d[5mC]*dT*dT*dT*dA[ms]eTeT*eA*eA*eA) [compound 1693047]” are 78 % control, 77 % control, 97 % control and 71 % control.
For “1693045: 5-10-5 MOE gapmer CTTGGTGAATCTTTATTAAA, linkages ssssozzzzssssssssss (antisense e[5mC]*eT*eT*eG*eGdT[ms]dG[ms]dA[ms]dA[ms]dT*d[5mC]*dT*dT*dT*dA*eT*eT*eA*eA*eA) [compound 1693045]”, in the series with human APOE RNA [3], the “APOE RNA (% control) Cortex” value stood at 88 % control and the “APOE RNA (% control) Spinal Cord” value was 86 % control. In addition, in the series with human APOE RNA [4], the “APOE RNA (% control) Cortex” value came to 93 % control and the “APOE RNA (% control) Spinal Cord” value amounted to 60 % control.

By IC50 is commonly meant the point on the concentration scale where inhibition reaches its midpoint. Low values mean higher potency, high ones lower potency.
